Data reported in PMC11395232, “Aquaporin-3a Dysfunction Impairs Osmoadaptation in Post-Activated Marine Fish Spermatozoa” (International Journal of Molecular Sciences, 2024).

Assays:
Aqp3a (SaAqp3a) = biological target: T1, Aqp3a (SaAqp3a) (Sparus aurata, UniProt A0A671Y259); test: oocyte swelling assay, osmotic water permeability (Pf); assay type: cell-based
T1 construct: cDNA heterologously expressed in Xenopus laevis oocytes (10 ng cRNA); calculated monomer mass 33 kDa
T1 sequence (A0A671Y259 1-302): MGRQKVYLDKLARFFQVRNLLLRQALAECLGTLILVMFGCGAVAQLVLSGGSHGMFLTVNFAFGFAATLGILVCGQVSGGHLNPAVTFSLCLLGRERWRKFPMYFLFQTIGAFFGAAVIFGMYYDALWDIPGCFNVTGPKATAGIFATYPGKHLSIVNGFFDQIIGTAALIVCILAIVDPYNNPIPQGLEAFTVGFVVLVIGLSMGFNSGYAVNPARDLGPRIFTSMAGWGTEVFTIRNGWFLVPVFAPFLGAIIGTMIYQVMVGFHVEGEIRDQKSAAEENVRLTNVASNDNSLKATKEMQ

human AQP3 (HsAQP3) = biological target: T2, human AQP3 (HsAQP3) (Homo sapiens, UniProt Q92482); test: as above; assay type: cell-based
T2 construct: cDNA heterologously expressed in Xenopus laevis oocytes (10 ng cRNA)
T2 sequence (Q92482 1-292): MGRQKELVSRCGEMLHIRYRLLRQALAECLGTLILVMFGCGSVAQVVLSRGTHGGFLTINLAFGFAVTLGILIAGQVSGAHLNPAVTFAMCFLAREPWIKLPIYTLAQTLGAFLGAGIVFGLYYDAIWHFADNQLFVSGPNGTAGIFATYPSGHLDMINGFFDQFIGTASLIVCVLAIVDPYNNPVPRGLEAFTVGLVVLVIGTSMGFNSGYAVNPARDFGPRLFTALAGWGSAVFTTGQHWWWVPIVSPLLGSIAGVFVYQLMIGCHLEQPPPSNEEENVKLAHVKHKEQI

O=C(Nc1csc([N+](=O)[O-])c1)Nc1c(Cl)cccc1Cl [DFP00173]
inhibition at 10 µM (Aqp3a (SaAqp3a)): 76 ± 4% | inhibition at 10 µM (human AQP3 (HsAQP3)): 66 ± 4%
